The values below come from US20090298820A1, “3-SUBSTITUTED-1H-PYRROLO[2,3-B]PYRIDINE AND 3-SUBSTITUTED-1H-PYRROLO[3,2-B]PYRIDINE COMPOUNDS, THEIR USE AS MTOR KINASE AND PI3 KINASE INHIBITORS, AND THEIR SYNTHESES” (Wyeth, priority 2008, published 2009).

Structures can show the parent of a compound that is named as a salt. Bounds are passed on as bounds.

One series addresses mTOR (Homo sapiens, UniProt P42345). As to the kind of experiment: mTOR enzyme assay (DELFIA format, His6-S6K substrate). The class given is biochemical. Conditions: read-out: mTOR Kinase Median IC50.
In a further series the target is PI3Kγ (Homo sapiens, UniProt P48736). In words: PI3K-gamma fluorescence polarization assay. The class given is biochemical. To be noted: read-out: PI3Kγ Median IC50. (In general: Fluorescence polarisation rises when a labelled molecule tumbles more slowly, as on binding a larger partner.)
The target of a further series is PI3Kα (Homo sapiens, UniProt P42336). As to the kind of experiment: PI3K-alpha fluorescence polarization assay. The class given is biochemical. To be noted: read-out: PI3Kα Median IC50.
PI3Kα, sequence (P42336 whole entry, species assumed): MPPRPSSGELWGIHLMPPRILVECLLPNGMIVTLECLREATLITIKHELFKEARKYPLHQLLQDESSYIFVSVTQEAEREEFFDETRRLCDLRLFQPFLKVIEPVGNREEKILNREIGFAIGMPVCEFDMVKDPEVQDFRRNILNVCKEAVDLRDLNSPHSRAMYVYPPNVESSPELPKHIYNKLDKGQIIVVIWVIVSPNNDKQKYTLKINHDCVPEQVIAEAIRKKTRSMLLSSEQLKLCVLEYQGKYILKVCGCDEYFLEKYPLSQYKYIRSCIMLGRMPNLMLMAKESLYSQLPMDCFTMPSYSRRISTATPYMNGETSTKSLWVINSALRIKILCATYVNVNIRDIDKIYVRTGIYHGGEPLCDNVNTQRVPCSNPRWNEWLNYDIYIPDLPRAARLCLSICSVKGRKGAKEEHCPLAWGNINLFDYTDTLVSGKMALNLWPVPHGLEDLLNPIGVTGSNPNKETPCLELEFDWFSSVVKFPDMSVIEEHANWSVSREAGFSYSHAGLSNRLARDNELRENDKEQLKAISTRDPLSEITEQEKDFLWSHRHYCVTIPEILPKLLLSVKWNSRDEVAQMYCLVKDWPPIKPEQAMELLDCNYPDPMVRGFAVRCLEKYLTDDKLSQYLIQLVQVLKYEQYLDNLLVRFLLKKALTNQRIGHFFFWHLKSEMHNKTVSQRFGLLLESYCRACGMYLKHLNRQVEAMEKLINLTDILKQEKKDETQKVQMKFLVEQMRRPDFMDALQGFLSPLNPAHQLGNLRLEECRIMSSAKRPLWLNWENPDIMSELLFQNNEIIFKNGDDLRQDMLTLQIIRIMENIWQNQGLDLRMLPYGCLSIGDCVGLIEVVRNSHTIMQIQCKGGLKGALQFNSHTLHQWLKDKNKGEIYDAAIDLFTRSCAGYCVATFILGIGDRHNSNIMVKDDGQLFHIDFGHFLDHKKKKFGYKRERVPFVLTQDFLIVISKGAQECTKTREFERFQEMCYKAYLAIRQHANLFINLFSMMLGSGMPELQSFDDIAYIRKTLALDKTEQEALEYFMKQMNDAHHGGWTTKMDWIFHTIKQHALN
PI3Kα, sequence (P27986 whole entry partner, species assumed): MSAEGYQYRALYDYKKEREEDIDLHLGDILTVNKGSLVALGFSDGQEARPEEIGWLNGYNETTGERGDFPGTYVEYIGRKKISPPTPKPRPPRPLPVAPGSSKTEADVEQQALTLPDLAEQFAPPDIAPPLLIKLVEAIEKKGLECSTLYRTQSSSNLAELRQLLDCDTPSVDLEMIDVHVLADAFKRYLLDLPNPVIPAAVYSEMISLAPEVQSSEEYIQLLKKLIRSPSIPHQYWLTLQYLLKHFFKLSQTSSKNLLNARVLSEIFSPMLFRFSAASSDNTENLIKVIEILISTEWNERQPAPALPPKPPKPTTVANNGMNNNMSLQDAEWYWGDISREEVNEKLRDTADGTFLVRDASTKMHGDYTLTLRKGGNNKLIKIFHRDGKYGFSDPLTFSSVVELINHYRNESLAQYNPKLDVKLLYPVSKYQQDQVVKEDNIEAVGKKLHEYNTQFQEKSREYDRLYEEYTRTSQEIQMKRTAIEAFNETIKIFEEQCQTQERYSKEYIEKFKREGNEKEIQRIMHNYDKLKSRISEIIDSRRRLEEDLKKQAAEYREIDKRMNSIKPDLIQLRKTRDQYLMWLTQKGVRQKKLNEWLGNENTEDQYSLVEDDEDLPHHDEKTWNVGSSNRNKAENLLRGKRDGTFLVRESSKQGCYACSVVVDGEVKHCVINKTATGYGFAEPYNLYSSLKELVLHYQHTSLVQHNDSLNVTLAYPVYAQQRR

PI3Kγ, sequence (P48736 whole entry, species assumed): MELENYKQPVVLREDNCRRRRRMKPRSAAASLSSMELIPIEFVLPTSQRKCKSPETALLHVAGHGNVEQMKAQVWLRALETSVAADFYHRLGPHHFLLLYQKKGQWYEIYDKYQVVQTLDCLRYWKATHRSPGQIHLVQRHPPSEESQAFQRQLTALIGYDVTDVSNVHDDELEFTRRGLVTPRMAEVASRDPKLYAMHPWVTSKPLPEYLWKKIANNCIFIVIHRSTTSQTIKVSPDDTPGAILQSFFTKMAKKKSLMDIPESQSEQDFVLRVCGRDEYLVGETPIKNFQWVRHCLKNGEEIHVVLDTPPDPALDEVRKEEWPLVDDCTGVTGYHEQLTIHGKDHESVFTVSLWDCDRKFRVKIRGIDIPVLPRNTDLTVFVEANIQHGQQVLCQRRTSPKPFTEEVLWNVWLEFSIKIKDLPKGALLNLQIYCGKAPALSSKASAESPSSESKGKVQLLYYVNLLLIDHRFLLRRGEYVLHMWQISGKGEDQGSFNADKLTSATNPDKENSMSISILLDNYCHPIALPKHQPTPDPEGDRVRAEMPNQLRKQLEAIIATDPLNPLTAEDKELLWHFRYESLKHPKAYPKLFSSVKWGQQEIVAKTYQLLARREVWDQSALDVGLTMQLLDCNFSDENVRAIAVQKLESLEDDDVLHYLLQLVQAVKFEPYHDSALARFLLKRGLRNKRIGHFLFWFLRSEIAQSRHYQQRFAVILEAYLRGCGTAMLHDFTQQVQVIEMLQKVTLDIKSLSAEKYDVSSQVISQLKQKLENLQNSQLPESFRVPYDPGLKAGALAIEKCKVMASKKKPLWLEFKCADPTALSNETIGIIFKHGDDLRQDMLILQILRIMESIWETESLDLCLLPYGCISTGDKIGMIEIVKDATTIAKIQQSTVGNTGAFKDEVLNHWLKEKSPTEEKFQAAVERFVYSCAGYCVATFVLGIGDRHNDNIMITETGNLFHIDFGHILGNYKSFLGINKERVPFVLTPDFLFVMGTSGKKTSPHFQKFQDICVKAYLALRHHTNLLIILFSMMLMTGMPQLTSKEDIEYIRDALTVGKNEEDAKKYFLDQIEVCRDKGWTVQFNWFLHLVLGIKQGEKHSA

One may read the melting point as the temperature, or range, at which the solid turns liquid. As for `CCOC(=O)Nc1ccc2c(c1)C(=O)/C(=C/c1cn(C)c3nccc(N4CCC(C(=O)N(C)C)CC4)c13)O2` (as salt: Na) [Compound 171, ethyl[(2Z)-2-({4-[4-(dimethylcarbamoyl)piperidin-1-yl]-1-methyl-1H-pyrrolo[2,3-b]pyridin-3-yl}methylidene)-3-oxo-2,3-dihydro-1-benzofuran-5-yl]carbamate], the melting point was in the range of 162 to 167 °C.

One may read the IC50 as the midpoint of a concentration-inhibition curve. Turning to `Cn1cc(/C=C2\Oc3cc(O)ccc3C2=O)c2c(-c3ccccc3)ccnc21` [Compound 30, (2Z)-6-hydroxy-2-[(1-methyl-4-phenyl-1H-pyrrolo[2,3-b]pyridin-3-yl)methylene]-1-benzofuran-3(2H)-one], the melting point was 314 to 316 °C (dec.). Further, the IC50 on mTOR was found to be 19 nM. Also, at PI3Kγ, the IC50 was 2380 nM. Further, the IC50 at PI3Kα came out at 219 nM.

`Cn1cc(/C=C2\Oc3cccc(O)c3C2=O)c2c(-c3ccccc3)ccnc21` [Compound 31, (2Z)-4-hydroxy-2-[(1-methyl-4-phenyl-1H-pyrrolo[2,3-b]pyridin-3-yl)methylene]-1-benzofuran-3(2H)-one] came in with a melting point of 274 to 275 °C. Moreover, at mTOR, the IC50 was 3.5 nM. Also, on PI3Kγ, the IC50 is 187 nM. In addition, the IC50 at PI3Kα was 89 nM.

For the compound `Cn1cc(/C=C2\Oc3cc(O)cc(F)c3C2=O)c2c(-c3ccccc3)ccnc21` [Compound 32, (2Z)-4-fluoro-6-hydroxy-2-[(1-methyl-4-phenyl-1H-pyrrolo[2,3-b]pyridin-3-yl)methylene]-1-benzofuran-3(2H)-one], the melting point is 325 to 327 °C (dec.). In addition, the 50% inhibitory concentration (IC50) at mTOR was 46.5 nM. Also, the IC50 at PI3Kγ was 1050 nM. The IC50 at PI3Kα worked out at 98 nM.

As for `Cn1cc(/C=C2\Oc3ccc(Br)cc3C2=O)c2c(-c3ccccc3)ccnc21` [Compound 37, (2Z)-5-bromo-2-[(1-methyl-4-phenyl-1H-pyrrolo[2,3-b]pyridin-3-yl)methylene]-1-benzofuran-3(2H)-one], the melting point is 227 to 229 °C. Further, on mTOR, the IC50 was above 4000 nM. The IC50 at PI3Kγ was determined as 4000 nM. For the same compound, the IC50 on PI3Kα came out at 6860 nM.

On to `CNC(=O)Nc1ccc2c(c1)C(=O)/C(=C/c1cn(C)c3nccc(-c4ccccc4)c13)O2` [Compound 38, 1-methyl-3-{(2Z)-2-[(1-methyl-4-phenyl-1H-pyrrolo[2,3-b]pyridin-3-yl)methylene]-3-oxo-2,3-dihydro-1-benzofuran-5-yl}urea], for which the melting point was 265 to 270 °C (dec.). On mTOR, the IC50 came out at 37 nM. The IC50 on PI3Kγ was found to be 1570 nM. The IC50 on PI3Kα was found to be 234 nM.

Compound `Cn1cc(/C=C2\Oc3cc(O)cc(O)c3C2=O)c2c(C#Cc3ccccc3)ccnc21` [Compound 39, (2Z)-4,6-dihydroxy-2-{[1-methyl-4-(phenylethynyl)-1H-pyrrolo[2,3-b]pyridin-3-yl]methylene}-1-benzofuran-3(2H)-one] displayed a melting point of 308 to 310 °C. Further, the IC50 on mTOR came out at 5.7 nM. For the same compound, the IC50 at PI3Kγ came out at 104 nM. On PI3Kα, the IC50 turned out to be 106 nM.

In turn, `Cn1cc(/C=C2\Oc3cc(O)cc(O)c3C2=O)c2c(N3CCCCC3)ccnc21` [Compound 40, (2Z)-4,6-dihydroxy-2-[(1-methyl-4-piperidin-1-yl-1H-pyrrolo[2,3-b]pyridin-3-yl)methylene]-1-benzofuran-3(2H)-one] yielded a melting point of 322 to 324 °C. Moreover, at mTOR, the IC50 was 0.6 nM. Moreover, at PI3Kγ, the IC50 was 282 nM. Further, at PI3Kα, the IC50 was found to be 68 nM.

Take `Cn1cc(/C=C2\Oc3ccc(O)cc3C2=O)c2c(-c3ccccc3)ccnc21` [Compound 42, (2Z)-5-hydroxy-2-[(1-methyl-4-phenyl-1H-pyrrolo[2,3-b]pyridin-3-yl)methylene]-1-benzofuran-3(2H)-one]: the melting point was 352 to 354 °C (dec.). Moreover, on mTOR, the IC50 stood at 22.5 nM. Also, the IC50 on PI3Kγ is above 10000 nM. Further, the IC50 on PI3Kα was 129 nM.

Turning to `Cn1cc(/C=C2\Oc3cc(O)cc(O)c3C2=O)c2c(N3CCCC3)ccnc21` [Compound 46, (2Z)-4,6-dihydroxy-2-[(1-methyl-4-pyrrolidin-1-yl-1H-pyrrolo[2,3-b]pyridin-3-yl)methylene]-1-benzofuran-3(2H)-one], the melting point lay within 312 to 315 °C. The IC50 on mTOR is 1.6 nM. Also, the IC50 on PI3Kγ was determined as 240 nM. For the same compound, the IC50 at PI3Kα stood at 59 nM.

Take `Cn1cc(/C=C2\Oc3ccc(N)cc3C2=O)c2c(-c3ccccc3)ccnc21` [Compound 58, (2Z)-5-amino-2-[(1-methyl-4-phenyl-1H-pyrrolo[2,3-b]pyridin-3-yl)methylene]-1-benzofuran-3(2H)-one]: the melting point is 232 to 239 °C. Besides, the IC50 on mTOR amounted to 16.5 nM. In addition, the IC50 on PI3Kγ stood at 966 nM. In addition, the IC50 on PI3Kα was found to be 199 nM.

With `Cn1cc(/C=C2\Oc3ccc(NC(=O)OCCO)cc3C2=O)c2c(-c3ccccc3)ccnc21` [Compound 60, 2-hydroxyethyl {(2Z)-2-[(1-methyl-4-phenyl-1H-pyrrolo[2,3-b]pyridin-3-yl)methylene]-3-oxo-2,3-dihydro-1-benzofuran-5-yl}carbamate], the melting point was in the range of 233 to 235 °C. Besides, the IC50 on mTOR was determined as 58.5 nM. For the same compound, the half-inhibitory concentration (IC50) on PI3Kγ was above 10000 nM. Further, at PI3Kα, the IC50 is above 10000 nM.

Regarding `Cn1cc(/C=C2\Oc3cc(O)cc(O)c3C2=O)c2c(-c3cncnc3)ccnc21` [Compound 62, (2Z)-4,6-dihydroxy-2-[(1-methyl-4-pyrimidin-5-yl-1H-pyrrolo[2,3-b]pyridin-3-yl)methylene]-1-benzofuran-3(2H)-one], the melting point was 340 °C. In addition, at mTOR, the half-inhibitory concentration (IC50) is 4.3 nM.

The compound `Cn1cc(/C=C2\Oc3cc(O)cc(O)c3C2=O)c2c(-c3ccc(Cl)nc3)ccnc21` [Compound 63, (2Z)-2-{[4-(6-chloropyridin-3-yl)-1-methyl-1H-pyrrolo[2,3-b]pyridin-3-yl]methylene}-4,6-dihydroxy-1-benzofuran-3(2H)-one] yielded a melting point of 340 °C. Moreover, the IC50 on mTOR came out at 1.5 nM. Besides, the IC50 on PI3Kγ was found to be 24 nM. In addition, the IC50 at PI3Kα is 8 nM.

`CN1CC2CC1CN2c1ccnc2c1c(/C=C1\Oc3cccc(O)c3C1=O)cn2C` (stereo not drawn) [Compound 153, (2Z)-4-hydroxy-2-{[1-methyl-4-(5-methyl-2,5-diazabicyclo[2.2.1]hept-2-yl)-1H-pyrrolo[2,3-b]pyridin-3-yl]methylidene}-1-benzofuran-3(2H)-one]: the melting point is 220 °C (dec.). Besides, the IC50 on mTOR turned out to be 16 nM. Also, the half-maximal inhibitory concentration (IC50) on PI3Kγ came to 148 nM.

The compound `CN(C)C(=O)C1CCN(c2ccnc3c2c(/C=C2\Oc4ccc(NC(=O)C(F)(F)F)cc4C2=O)cn3C)CC1` [Compound 163, N,N-dimethyl-1-{1-methyl-3-[(Z)-{3-oxo-5-[(trifluoroacetyl)amino]-1-benzofuran-2(3H)-ylidene}methyl]-1H-pyrrolo[2,3-b]pyridin-4-yl}piperidine-4-carboxamide] had a melting point of 236 to 240 °C. In addition, on PI3Kγ, the IC50 was above 10000 nM. For the same compound, the IC50 on PI3Kα came to 5640 nM.

`CN(C)C(=O)C1CCN(c2ccnc3c2c(/C=C2\Oc4ccc(NC(=O)NC5CC5)cc4C2=O)cn3C)CC1` [Compound 291, 1-{3-[(Z)-{5-[(cyclopropylcarbamoyl)amino]-3-oxo-1-benzofuran-2(3H)-ylidene}methyl]-1-methyl-1H-pyrrolo[2,3-b]pyridin-4-yl}-N,N-dimethylpiperidine-4-carboxamide]: the IC50 on mTOR came to 59 nM; on PI3Kγ, 4680 nM; on PI3Kα, 2550 nM.

Regarding `Cn1cc(/C=C2\Oc3ccc(NC(=O)Nc4cccnc4)cc3C2=O)c2c(C3=CCOCC3)ccnc21` [Compound 294, 1-[(2Z)-2-{[4-(3,6-dihydro-2H-pyran-4-yl)-1-methyl-1H-pyrrolo[2,3-b]pyridin-3-yl]methylidene}-3-oxo-2,3-dihydro-1-benzofuran-5-yl]-3-pyridin-3-ylurea], the IC50 was 27.5 nM at mTOR, above 10000 nM on PI3Kγ and 2080 nM on PI3Kα.

Regarding `Cn1cc(/C=C2\Oc3ccc(NC(=O)Nc4ccc(F)nc4)cc3C2=O)c2c(N3CC4CCC(C3)O4)ccnc21` [Compound 298, 1-(6-fluoropyridin-3-yl)-3-[(2Z)-2-{[1-methyl-4-(8-oxa-3-azabicyclo[3.2.1]oct-3-yl)-1H-pyrrolo[2,3-b]pyridin-3-yl]methylidene}-3-oxo-2,3-dihydro-1-benzofuran-5-yl]urea], the IC50 on mTOR came out at 26 nM; on PI3Kγ, 2120 nM; on PI3Kα it was 274 nM.

`CN(C)C(=O)C1CCN(c2ccnc3c2c(/C=C2\Oc4ccc(NC(=O)NC5CCN(C(=O)C(F)(F)F)CC5)cc4C2=O)cn3C)CC1` [Compound 300, N,N-dimethyl-1-(1-methyl-3-{(Z)-[3-oxo-5-({[1-(trifluoroacetyl)piperidin-4-yl]carbamoyl}amino)-1-benzofuran-2(3H)-ylidene]methyl}-1H-pyrrolo[2,3-b]pyridin-4-yl)piperidine-4-carboxamide]: the IC50 amounted to 105 nM on mTOR, 3540 nM at PI3Kγ and 736 nM at PI3Kα.

For the compound “(2Z)-2-({4-[4-(5,6-dihydro-4H-1,3-oxazin-2-yl)phenyl]-1-methyl-1H-pyrrolo[2,3- b]pyridin-3-yl}methylidene)-4-hydroxy-1-benzofuran-3(2H)-one [Compound 22]”, the IC50 on mTOR worked out at 4.6 nM; on PI3Kγ, 276 nM; at PI3Kα, 109 nM.

Turning to “(2Z)-4-hydroxy-2-{[1-methyl-4-(1H-pyrrol-2-yl)-1H-pyrrolo[2,3-b]pyridin-3-yl]methylidene}-1-benzofuran-3(2H)-one [Compound 23]”, the half-inhibitory concentration (IC50) at mTOR worked out at 50.5 nM; at PI3Kγ it was 2090 nM; at PI3Kα, 381 nM.
